Data on eleven compounds can be found in patent US20240124454A1, “TRICYCLIC COMPOUND AND USE THEREOF” (NANJING ZAIMING PHARMACEUTICAL CO., LTD., priority 2020, published 2024).

Each structure is given as a SMILES string. Like-named read-outs stand apart in the source and are kept apart here.

The target in one series is MAT2A (Homo sapiens (Human), UniProt P31153). The series is described as follows: MAT2A biochemical test (inorganic phosphate colorimetric, PiColorLock). As to conditions: read-out: MAT2A inhibitory Activity IC50. The gist of the method: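 Compounds tested from 10 μM top concentration in 3-fold dilutions, preincubated 120 min at room temperature with MAT2A ([…] final) in Tris/KCl/MgCl2/EDTA/BSA buffer. Reaction started with […] L-methionine and 400 μM ATP, run 90 min at room temperature; phosphate read by PiColorLock after 30 min. IC50 fitted from % inhibition versus no-enzyme and DMSO controls.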
Sequence of MAT2A (P31153 whole entry): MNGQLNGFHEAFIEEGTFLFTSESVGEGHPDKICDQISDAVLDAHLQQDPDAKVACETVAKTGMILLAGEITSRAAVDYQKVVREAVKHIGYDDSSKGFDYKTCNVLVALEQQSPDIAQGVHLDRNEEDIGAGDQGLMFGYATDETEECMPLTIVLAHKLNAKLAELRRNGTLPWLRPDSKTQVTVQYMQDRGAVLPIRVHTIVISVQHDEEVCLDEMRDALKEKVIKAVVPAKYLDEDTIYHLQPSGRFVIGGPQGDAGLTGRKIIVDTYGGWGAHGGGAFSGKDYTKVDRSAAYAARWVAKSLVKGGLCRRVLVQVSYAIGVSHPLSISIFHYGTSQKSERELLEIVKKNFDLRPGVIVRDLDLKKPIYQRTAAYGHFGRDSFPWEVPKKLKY

A short description of series [1]: Metabolic stability in mouse liver microsomes. It counts as in vitro ADME. As to conditions: 1 μM compound, 0.5 mg/mL microsome, NADPH; for half-life at 1 μM: CD-1, mouse, liver microsomes, pH 7.4, read-out: Mouse liver microsome stability t1/2. Here is the method:
Test Example 4. Determination of Metabolic Stability of Compound of the Present Application in Liver Microsomes
The metabolic stability of the compound of the present application in liver microsomes was determined using the following method.
I. Experimental materials and instruments • 1. Human liver microsome (Corning 452117), beagle dog liver microsome (XENOTECH D1000), SD rat liver microsome (XENOTECH R1000), and CD-i mouse liver microsome (XENOTECH M1000) • 2. Na2HPO4 (Tianjin Guangfu Fine Chemical Research Institute 20180130) • 3. KH2PO4 (Tianjin Guangfu Fine Chemical Research Institute 20180920) • 4. MgCl2 (Tianjin Guangfu Fine Chemical Research Institute 20191216) • 5. NADPH (Solarbio 1216C022) • 6. Positive control compound verapamil (Sigma MKBV4993V) • 7. AB Sciex API4000 liquid chromatography-mass spectrometry system
1. Preparation of 100 mMV phosphate-buffered saline (PBS): 7.098 g Na2HPO4 was weighed. 500 mL pure water was added. The mixture was dissolved by sonication to give solution A. 3.400 g KH2PO4 was weighed. 250 mL pure water was added. The mixture was dissolved by sonication to give solution B. The solution A was placed in a stirrer, and the solution B was slowly added until the pH reached 7.4, so that the 100 mM PBS buffer was prepared.
2. Preparation of reaction system
The reaction system was prepared as follows:
3. The reaction system was pre-incubated in a 37° C. water bath for 10 min. 40 μL of 10 mM NADPH solution (NADPH was dissolved by 100 mM phosphate-buffered saline) was added to the reaction system with a final concentration of NADPH being 1 mM. A negative control was made by replacing the NADPH solution with 40 μL phosphate-buffered saline. The negative control was used to exclude the effect of chemical stability of the compound itself.
4. The reaction was initiated by adding 4 μL of 100 μM of the compound of the present application and verapamil, the positive control compound, to the reaction system with a final concentration of the compound being 1 μM.
5. After being uniformly mixed in a vortex oscillator, 50 μL incubation sample was respectively taken out at 0.5, 15, 30, 45, and 60 min, and the reaction was stopped by 200 μL glacial acetonitrile containing an internal standard. The sample was centrifuged at 3220 g for 45 min. 90 μL of the supernatant was transferred to a feeding plate after the centrifugation was completed, and 90 μL ultrapure water was added. The mixture was well mixed for LC-MS/MS analysis.
All data were calculated by Microsoft Excel software. The peak area was detected through an extracted ion chromatogram. The in vitro half-life (t1/2) of the compound was determined by linear fitting of the natural logarithm of compound elimination percentage over time.
In vitro half-life (t1/2) was calculated by the slope: […]
The in vitro intrinsic clearance (in μL/min/mg protein) was calculated using the following formula:
in vitro CLint=k×volume of incubation (μL)/amount of proteins (mg)
CLint was intrinsic clearance; k was an elimination rate constant; volume of incubation was the incubation volume (μL); amount of proteins was the amount of protein (mg)

For the compound `Cc1ncccc1-n1c(=O)c2ncn(C)c2c2ccc(C(F)(F)F)nc21` (atropisomer, axis not shown) [Compound 20, 1-methyl-5-(2-methylpyridin-3-yl)-7-(trifluoromethyl)-1,5-dihydro-4H-imidazo[4,5-c][1,8]naphthyridin-4-one], the values for the IC50 on MAT2A (class symbols) and at MAT2A (numeric values) were less than 0.1 µM and 0.0549 µM, respectively. Moreover, the half-life at 1 μM in series [1] was greater than 5 h.

Take `Cn1cnc2c(=O)n(-c3cccc(F)c3Cl)c3nc(C(F)(F)F)ccc3c21` (atropisomer, axis not shown) [Compound 25, 5-(2-chloro-3-fluorophenyl)-1-methyl-7-(trifluoromethyl)-1,5-dihydro-4H-imidazo[4,5-c][1,8]naphthyridin-4-one]: the IC50 at MAT2A (class symbols) was less than 0.1 µM; at MAT2A (numeric values), 0.048 µM. Also, in series [1], the half-life at 1 μM was 4.78 h.

Consider `Cn1cnc2c(=O)n(-c3cccc(F)c3Cl)c3nc(C(F)(F)F)ccc3c21` (single isomer, unassigned) [Compound 25-P2, 5-(2-chloro-3-fluorophenyl)-1-methyl-7-(trifluoromethyl)-1,5-dihydro-4H-imidazo[4,5-c][1,8]naphthyridin-4-one], for which the IC50 at MAT2A (class symbols) was less than 0.1 µM; at MAT2A (numeric values), 0.0206 µM. In series [1], the half-life at 1 μM was greater than 5 h.

Consider `Cn1cnc2c(=O)n(-c3cccnc3C(F)(F)F)c3nc(C(F)(F)F)ccc3c21` (single isomer, unassigned) [Compound 41-P2, 1-methyl-7-(trifluoromethyl)-5-(2-(trifluoromethyl)pyridin-3-yl)-1,5-dihydro-4H-imidazo[4,5-c][1,8]naphthyridin-4-one], for which the IC50 on MAT2A (class symbols) was less than 0.1 µM; at MAT2A (numeric values) it was 0.0223 µM. The half-life at 1 μM in series [1] was greater than 5 h.

On to `Cn1cnc2c(=O)n(-c3cccnc3C3CC3)c3nc(C(F)(F)F)ccc3c21` (single isomer, unassigned) [Compound 42-P2, 5-(2-cyclopropylpyridin-3-yl)-1-methyl-7-(trifluoromethyl)-1,5-dihydro-4H-imidazo[4,5-c][1,8]naphthyridin-4-one], for which the IC50 was less than 0.1 µM at MAT2A (class symbols) and 0.0203 µM on MAT2A (numeric values). In addition, the half-life at 1 μM in series [1] is 1.86 h.

As to `Cn1cnc2c(=O)n(-c3cccnc3C3CC3)c3cc(C(F)(F)F)ccc3c21` (single isomer, unassigned) [Compound 48-P2, 5-(2-cyclopropylpyridin-3-yl)-1-methyl-7-(trifluoromethyl)-1,5-dihydro-4H-imidazo[4,5-c]quinolin-4-one], the IC50 at MAT2A (class symbols) is less than 0.1 µM; at MAT2A (numeric values) it was 0.0214 µM. The half-life at 1 μM in series [1] was greater than 5 h.

Take `Cn1cnc2c(=O)n(-c3cccnc3C3CC3)c3cc(Cl)ccc3c21` (single isomer, unassigned) [Compound 49-P2, 7-chloro-5-(2-cyclopropylpyridin-3-yl)-1-methyl-1,5-dihydro-4H-imidazo[4,5-c]quinolin-4-one]: the IC50 is less than 0.1 µM at MAT2A (class symbols) and 0.0187 µM at MAT2A (numeric values). The half-life at 1 μM in series [1] is greater than 5 h.

Take `O=c1c2ncoc2c2ccc(C(F)(F)F)nc2n1-c1cccnc1C1CC1` (single isomer, unassigned) [Compound 81-P2, 5-(2-cyclopropylpyridin-3-yl)-7-(trifluoromethyl)oxazolo[4,5-c][1,8]naphthyridin-4(5H)-one]: the values for the IC50 at MAT2A (class symbols) and at MAT2A (numeric values) were less than 0.1 µM and 0.0362 µM, respectively.

With `Cn1cnc2c(=O)n(-c3cccc(F)c3Cl)c3cc(Cl)ccc3c21` [Compound 39, 7-chloro-5-(2-chloro-3-fluorophenyl)-1-methyl-1,5-dihydro-4H-imidazo[4,5-c]quinolin-4-one], the IC50 was less than 0.1 µM on MAT2A (class symbols) and 0.0604 µM on MAT2A (numeric values). Also, the “Mouse liver microsome stability t1/2” value in series [1] was greater than 5 h.

Consider `Cc1ncccc1-n1c(=O)c2ncoc2c2ccc(C(F)(F)F)nc21` [Compound 40, 5-(2-methylpyridin-3-yl)-7-(trifluoromethyl)oxazolo[4,5-c][1,8]naphthyridin-4(5H)-one], for which the IC50 on MAT2A (class symbols) is less than 0.1 µM; at MAT2A (numeric values) it was 0.043 µM. Moreover, the half-life at 1 μM in series [1] was greater than 5 h.

Consider `Cc1ncccc1-n1c(=O)c2ncn(C)c2c2ccc(C(F)(F)F)cc21` [Compound 45, 1-methyl-5-(2-methylpyridin-3-yl)-7-(trifluoromethyl)-1,5-dihydro-4H-imidazo[4,5-c]quinolin-4-one], for which the results for the IC50 at MAT2A (class symbols) and at MAT2A (numeric values) were less than 0.1 µM and 0.047 µM, respectively. Besides, the half-life at 1 μM in series [1] is greater than 5 h.
